Where two headings read alike, the source gives them in different places.
Experiments:
[1] = target: T1, CGRP receptor (SK-N-MC cell membranes) (Homo sapiens, UniProt O60894+Q16602); assay: CGRP Binding Assay ([125I]-CGRP radioligand binding, SK-N-MC homogenate)
T1 construct: endogenous in cells; host or cells: SK-N-MC cells (membrane homogenate)

[2] = target: T2, human CGRP receptor (SK-N-MC cells) (Homo sapiens, UniProt O60894+Q16602); assay: Cyclic AMP Assay, functional antagonism of CGRP-induced cyclic AMP formation; assay type: cell-based
T2 construct: SK-N-MC cells that endogenously express the human CGRP receptor; endogenous in cells; host or cells: SK-N-MC cells
T2 sequence (Q16602 23-461): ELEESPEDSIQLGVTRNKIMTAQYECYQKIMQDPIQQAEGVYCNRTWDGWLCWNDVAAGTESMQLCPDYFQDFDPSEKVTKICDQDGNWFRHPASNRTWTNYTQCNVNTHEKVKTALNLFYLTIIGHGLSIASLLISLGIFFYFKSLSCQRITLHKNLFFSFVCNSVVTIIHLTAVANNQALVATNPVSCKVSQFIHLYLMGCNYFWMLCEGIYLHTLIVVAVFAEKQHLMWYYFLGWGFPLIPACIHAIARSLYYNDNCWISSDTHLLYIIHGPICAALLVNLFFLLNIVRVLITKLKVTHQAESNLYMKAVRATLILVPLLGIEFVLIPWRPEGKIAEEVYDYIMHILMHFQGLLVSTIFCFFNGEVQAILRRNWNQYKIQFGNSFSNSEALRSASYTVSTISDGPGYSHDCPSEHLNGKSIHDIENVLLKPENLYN
T2 sequence (O60894 27-148): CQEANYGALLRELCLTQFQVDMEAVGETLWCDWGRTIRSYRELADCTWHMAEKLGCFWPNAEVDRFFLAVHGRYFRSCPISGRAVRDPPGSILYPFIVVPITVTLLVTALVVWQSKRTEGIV
Protocol: Functional Antagonism. Antagonism of the compounds of invention was determined by measuring the formation of cyclic AMP (adenosine 3′5′-cyclic monophosphate) in SK-N-MC cells that endogenously express the human CGRP receptor. […] For cyclic AMP measurements SK-N-MC cells were incubated with 0.3 nM CGRP alone or in the presence of various concentrations of the compounds of invention for 30 min at room temperature. […] Cyclic AMP was extracted using the lysis reagent and its concentration was determined by radioimmunoassay using RPA559 cAMP SPA Direct Screening Assay Kit (Amersham Pharmacia Biotech). IC50 values were calculated using Excel fit.

[3] = displacement of [125I]-CGRP, SK-N-MC homogenate, read-out: CGRP binding IC50
[4] = SK-N-MC cells, 0.3 nM CGRP, read-out: cAMP Function IC50

T1 sequence (Q16602 23-461): as the sequence (Q16602 23-461) above
T1 sequence (O60894 27-148): as the sequence (O60894 27-148) above

| Compound | IC50 [1, 3] [nM] | IC50 [2, 4] [nM] | IC50 [1] [nM] | IC50 [2] [nM] |
| --- | --- | --- | --- | --- |
| O=C(NC(Cc1ccc2[nH]ncc2c1)C(=O)N1CCN(C(=O)OCc2ccccc2)CC1)N1CCC(N2Cc3ccccc3NC2=O)CC1 (stereo not shown) [Example 38, 4-(3-(1H-Indazol-5-yl)-2-{[4-(2-oxo-1,4-dihydro-2H-quinazolin-3-yl)-piperidine-1-carbonyl]-amino}-propionyl)-piperazine-1-carboxylic acid benzyl ester] | 10 to 100 | 10 to 100 |  |  |
| CCC(C)CN1CCN(C(=O)C(Cc2ccc3[nH]ncc3c2)NC(=O)N2CCC(N3Cc4ccccc4NC3=O)CC2)CC1 (stereo not shown) [Example 40a, 4-(2-Oxo-1,4-dihydro-2H-quinazolin-3-yl)-piperidine-1-carboxylic acid{1-(1H-indazol-5-ylmethyl)-2-[4-(2-methyl-butyl)-piperazin-1-yl]-2-oxo-ethyl}-amide] | < 10 | < 10 |  |  |
| O=C(N[C@H](Cc1csc2ccccc12)C(=O)N1CCC(N2CCCCC2)CC1)N1CCC2(CC1)Cc1ccccc1NC2=O [Example 61, (R)-1-Oxo-3,4-benzo-2,9-diaza-spiro[5.5]undec-3-ene-9-carboxylic acid (1-benzo[b]thiophen-3-ylmethyl-2-[1,4′]bipiperidinyl-1′-yl-2-oxo-ethyl)-amide] | 100 to 1000 | 100 to 1000 |  |  |
| O=C(NC(Cc1ccc2[nH]ncc2c1)C(=O)N1CCC(N2Cc3ccccc3NC2=O)CC1)N1CCC(N2Cc3ccccc3NC2=O)CC1 (stereo not shown) [Example 37, 4-(2-Oxo-1,4-dihydro-2H-quinazolin-3-yl)-piperidine-1-carboxylic acid{1-(1H-indazol-5-ylmethyl)-2-oxo-2-[4-(2-oxo-1,4-dihydro-2H-quinazolin-3-yl)-piperidin-1-yl]-ethyl}-amide] | < 10 | 10 to 100 |  |  |
| Cc1nc2cc(C[C@@H](NC(=O)N3CCC(N4Cc5ccccc5NC4=O)CC3)C(=O)N3CCC(N4CCCCC4)CC3)ccc2[nH]1 [Example 46, (R)-4-(2-Oxo-1,4-dihydro-2H-quinazolin-3-yl)-piperidine-1-carboxylic acid[2-[1,4′]bipiperidinyl-1′-yl-1-(2-methyl-1H-benzoimidazol-5-ylmethyl)-2-oxo-ethyl]-amide] | 10 to 100 | 10 to 100 |  |  |
| Cc1cc(CC(CC(=O)N2CCC(N3Cc4ccccc4NC3=O)CC2)C(=O)N2CCCCC2)cc2cn[nH]c12 (racemic) [Example 78, (±)-2-(7-Methyl-1H-indazol-5-ylmethyl)-4-[4-(2-oxo-1,4-dihydro-2H-quinazolin-3-yl)-piperidin-1-yl]-1-piperidin-1-yl-butane-1,4-dione] | < 10 | < 10 |  |  |
| C#CCNC(=O)C(CC(=O)N1CCC(N2Cc3ccccc3NC2=O)CC1)Cc1cc(C)c2[nH]ncc2c1 (racemic) [Example 84, (±)-2-(7-Methyl-1H-indazol-5-ylmethyl)-4-oxo-4-[4-(2-oxo-1,4-dihydro-2H-quinazolin-3-yl)-piperidin-1-yl]-N-prop-2-ynyl-butyramide] | 10 to 100 | 10 to 100 |  |  |
| Cc1cc(CC(NC(=O)N2CCC3(CC2)N=C(c2ccccc2)NC3=O)C(=O)N(C)C)cc2cn[nH]c12 (racemic) [Example 36, (±)-4-Oxo-2-phenyl-1,3,8-triaza-spiro[4,5]dec-1-ene-8-carboxylic acid[1-dimethylcarbamoyl-2-(7-methyl-1H-indazol-5-yl)-ethyl]amide] | 10 to 100 | 10 to 100 |  |  |
| Cc1cc(CC(NC(=O)N2CCC3(CC2)N=C(c2ccccc2)NC3=O)C(=O)N2CCCCC2)cc2cn[nH]c12 (racemic) [Example 35, (±)-4-Oxo-2-phenyl-1,3,8-triaza-spiro[4,5]dec-1-ene-8-carboxylic acid {1-(7-methyl-1H-indazol-5-yl methyl)-2-[1-piperidinylyl]-2-oxo-ethyl}-amide] | 10 to 100 | 10 to 100 |  |  |
| Cc1cc(CC(NC(=O)N2CCC(N3Cc4ccccc4NC3=O)CC2)C(=O)N2CCN(c3ccccn3)CC2)cc2cn[nH]c12 (racemic) [Example 22, (±)-4-(2-Oxo-1,4-dihydro-2H-quinazolin-3-yl)-piperidine-1-carboxylic acid[1-(7-methyl-1H-indazol-5-ylmethyl)-2-oxo-2-(4-pyridin-2-yl-piperazin-1-yl)-ethyl]-amide] | < 10 | < 10 |  |  |
| COc1ccc(C(=O)N[C@@H](CC(=O)N2CCC(N3Cc4ccccc4NC3=O)CC2)C(=O)N2CCC(N3CCCCC3)CC2)cc1 [Example 99, (L)-N-{1-([1,4′]Bipiperidinyl-1′-carbonyl)-3-oxo-3-[4-(2-oxo-1,4-dihydro-2H-quinazolin-3-yl)-piperidin-1-yl]-propyl}-4-methoxy-benzamide] | > 1000 | > 1000 |  |  |
| O=C(NC(Cc1ccc2[nH]ncc2c1)C(=O)N1CCNCC1)N1CCC(N2Cc3ccccc3NC2=O)CC1 (stereo not shown) [Example 39, 4-(2-Oxo-1,4-dihydro-2H-quinazolin-3-yl)-piperidine-1-carboxylic acid[1-(1H-indazol-5-ylmethyl)-2-oxo-2-piperazin-1-yl-ethyl]-amide] | 100 to 1000 | 100 to 1000 |  |  |
| CC1(C)CN(CC(NC(=O)N2CCC(N3Cc4ccccc4NC3=O)CC2)C(=O)N2CCC(N3CCCCC3)CC2)Cc2cn[nH]c21 (racemic) [Example 56, (±)-4-(2-Oxo-1,4-dihydro-2H-quinazolin-3-yl)-piperidine-1-carboxylic acid[2-[1,4′]bipiperidinyl-1′-yl-1-(7,7-dimethyl-1,4,6,7-tetrahydro-pyrazolo[4,3-c]pyridin-5-ylmethyl)-2-oxo-ethyl]-amide] | < 10 | < 10 |  |  |
| COC(=O)C(Cc1cc(C)c2[nH]ncc2c1)NC(=O)N1CCC(N2Cc3ccccc3NC2=O)CC1 (racemic) [Example 12, (±)-3-(7-Methyl-1H-indazol-5-yl)-2-{[4-(2-oxo-1,4-dihydro-2H-quinazolin-3-yl)-piperidine-1-carbonyl]-amino}-propionic acid methyl ester] | 10 to 100 | 100 to 1000 |  |  |
| Cc1cc(CC(NC(=O)N2CCC(N3Cc4ccccc4NC3=O)CC2)C(=O)O)cc2cn[nH]c12 (racemic) [Example 15, (±)-3-(7-Methyl-1H-indazol-5-yl)-2-{[4-(2-oxo-1,4-dihydro-2H-quinazolin-3-yl)-piperidine-1-carbonyl]-amino}-propionic acid] | 100 to 1000 | 100 to 1000 |  |  |
| O=C(C[C@H](Nc1cc(Cl)ccc1[N+](=O)[O-])C(=O)N1CCC(N2CCCCC2)CC1)N1CCC(N2Cc3ccccc3NC2=O)CC1 [Example 87, (L)-1-[1,4′]Bipiperidinyl-1′-yl-2-(5-chloro-2-nitro-phenylamino)-4-[4-(2-oxo-1,4-dihydro-2H-quinazolin-3-yl)-piperidin-1-yl]-butane-1,4-dione] | 10 to 100 | 10 to 100 |  |  |
| Cc1cc(CC(NC(=O)N2CCC3(CC2)N=C(c2ccccc2)NC3=O)C(=O)N2CCC(N3CCCCC3)CC2)cc2cn[nH]c12 (racemic) [Example 34, (±)-4-Oxo-2-phenyl-1,3,8-triaza-spiro[4,5]dec-1-ene-8-carboxylic acid {1-(7-methyl-1H-indazol-5-yl methyl)-2-[1,4]bipiperidinyl-1′-yl-2-oxo-ethyl}-amide] | < 10 | < 10 |  |  |
| O=C1CC2(CCN(C(=O)N[C@H](Cc3csc4ccccc34)C(=O)N3CCC(N4CCCCC4)CC3)CC2)c2ccccc2N1 [Example 62, N-[(1R)-1-(Benzo[b]thien-3-ylmethyl)-2-[1,4-bipiperidin]-1-yl-2-oxoethyl]-3′,4′-dihydro-2-oxospiro-[piperidine-4,4′(1H)-quinoline]-1-carboxamide] | 10 to 100 | 10 to 100 |  |  |
| O=C(NC(Cc1ccc2[nH]ncc2c1)C(=O)N1CCC2(CC1)OCCO2)N1CCC(n2c(=O)[nH]c3ccccc32)CC1 (racemic) [Example 10, (±)-4-(2-Oxo-2,3-dihydro-benzoimidazol-1-yl)-piperidine-1-carboxylic acid[2-(1,4-dioxa-8-aza-spiro[4.5]dec-8-yl)-1-(1H-indazol-5-ylmethyl)-2-oxo-ethyl]-amide] |  |  | 100 to 1000 | 10 to 100 |
| Cc1cc(CC(CC(=O)N2CCC(N3Cc4ccccc4NC3=O)CC2)C(=O)N2CCOCC2)cc2cn[nH]c12 (racemic) [Example 75, (±)-2-(7-Methyl-1H-indazol-5-ylmethyl)-1-morpholin-4-yl-4-[4-(2-oxo-1,4-dihydro-2H-quinazolin-3-yl)-piperidin-1-yl]-butane-1,4-dione] | < 10 | 10 to 100 |  |  |
| CN(C)C(=O)C(CC(=O)N1CCC(N2Cc3ccccc3NC2=O)CC1)Cc1ccc2[nH]ncc2c1 (racemic) [Example 82, (±)-2-(1H-Indazol-5-ylmethyl)-N,N-dimethyl-4-oxo-4-[4-(2-oxo-1,4-dihydro-2H-quinazolin-3-yl)-piperidin-1-yl]-butyramide] | 10 to 100 | 100 to 1000 |  |  |
| Cc1cc(CC(NC(=O)N2CCC3(CC2)OC(=O)Nc2ccccc23)C(=O)N2CCCCC2)cc2cn[nH]c12 (racemic) [Example 26, (±)-1-(7-Methyl-1H-indazol-5-ylmethyl)-2-(1-piperidinyl)-2-oxoethyl]-1′,2′-dihydro-2′-oxospiro-[4H-3′,1-benzoxazine-4,4′-piperidine]-1-carboxamide] | 10 to 100 | 10 to 100 |  |  |
| O=C1NCC2(CCN(C(=O)N[C@H](Cc3csc4ccccc34)C(=O)N3CCC(N4CCCCC4)CC3)CC2)c2ccccc21 [Example 63, N-[(1R)-1-(Benzo[b]thien-3-ylmethyl)-2-[1,4-bipiperidin]-1-yl-2-oxoethyl]-2′,3′-dihydro-1-oxospiro-[piperidine-4,4′(1H)-isoquinoline]-1-carboxamide] | 100 to 1000 | 100 to 1000 |  |  |
